The text below walks through data of ChEMBL document CHEMBL2094269, “WEHI/Eskitis Trypanosoma b. brucei screening data”.

Several values for one entry are separate records, joined by “and”; a condition that tells them apart may be missing. Identical values can stand only once. Some results are limits rather than exact numbers.

The subject of series [1] is Trypanosoma brucei brucei. Kind of series: microbe, parasite or virus in culture. It counts as functional, organism-based, STIB 795.
Description: DNDI: Inhibition of Human African Trypanosomiasis (HAT), STIB 795, in vitro
A short description of series [2]: DNDI: Cytotoxicity against human MRC-5 lung fibroblast cells. To be noted: IC50.

As to `N=c1n(Cc2ccccc2)c2ccccc2n1CC(O)COc1ccccc1` (stereo unspecified), the IC50 in series [1] (Trypanosoma brucei, STIB 795) was 7.55 µM; in series [2], more than 41.7 µM.

Take `CCCCC(=O)NC(c1ccc(N(C)C)cc1)c1ccc2cccnc2c1O` (stereo unspecified): the IC50 in series [1] (Trypanosoma brucei, STIB 795) was 5.84 µM; in series [2], more than 20.8 µM.

As for `CN(C)CCNC(=O)c1ccc(COc2ccc(Cl)cc2Cl)cc1`, the IC50 in series [1] (Trypanosoma brucei, STIB 795) is 3.41 µM; in series [2], more than 20.8 µM.

Consider `CC(C)C1CC(CCNCc2ccc(N(C)C)cc2)(c2ccccc2)CCO1` (stereo unspecified), for which the IC50 in series [1] (Trypanosoma brucei, STIB 795) is 5.22 µM; in series [2], more than 41.7 µM.

For `C=CCN1C(=O)C(O)(CC(=O)c2ccco2)c2cc(Br)ccc21` (stereo unspecified), the IC50 in series [1] (Trypanosoma brucei, STIB 795) is 0.483 µM; in series [2] it was more than 41.7 µM.

Turning to `CCN(CC)CCNc1cc(C)nc2c1C(=O)C(=O)C=C2N1CCCCC1`, the 50% inhibitory concentration (IC50) in series [1] (Trypanosoma brucei, STIB 795) amounted to 4.07 µM; in series [2] it was 6.25 µM.

On to `N=c1n(CCO)c2ccccc2n1CCOc1ccc(Cl)cc1Cl`, for which the IC50 was 2.63 µM in series [1] (Trypanosoma brucei, STIB 795) and 8.93 µM in series [2].

In the case of `COc1cc(CNCCO)cc(Br)c1OCc1ccccc1`, the IC50 was 4.73 µM in series [1] (Trypanosoma brucei, STIB 795) and more than 41.7 µM in series [2].

On to `CC[n+]1c(/C=C/c2ccc(N(C)C)cc2)sc2cc(NC(C)=O)ccc21`, for which the IC50 in series [1] (Trypanosoma brucei, STIB 795) was 0.049 µM; in series [2], more than 20.8 µM.

Turning to `COc1cc(Cl)cc2c1Sc1ccccc1CC2N1CCNCC1` (stereo unspecified), the half-maximal inhibitory concentration (IC50) in series [1] (Trypanosoma brucei, STIB 795) was 4.17 µM; in series [2] it was more than 20.8 µM.

As to `Cc1ccnc(NC(c2ccc3cccnc3c2O)c2sccc2C)c1` (stereo unspecified), the IC50 in series [1] (Trypanosoma brucei, STIB 795) was 3.32 µM; in series [2], more than 20.8 µM.

`Oc1c(C(Nc2ccccn2)c2ccccc2Cl)ccc2cccnc12` (stereo unspecified): the half-inhibitory concentration (IC50) was 9.28 µM in series [1] (Trypanosoma brucei, STIB 795) and more than 20.8 µM in series [2].

As for `Cc1nnc(-c2cc(S(=O)(=O)NCc3ccc4c(c3)OCO4)c[nH]2)o1`, the IC50 in series [1] (Trypanosoma brucei, STIB 795) was 5.42 µM; in series [2] it was more than 41.7 µM.

Take `CC(Cc1ccccc1)[n+]1[cH-]/c(=N\C(=N\Cc2ccccc2)N(C)C)on1` (stereo unspecified): the IC50 was 0.83 µM in series [1] (Trypanosoma brucei, STIB 795) and more than 41.7 µM in series [2].

On to `C=CCn1c(-c2ccccc2Cl)nn(C2CCC3OCC2O3)c1=S` (stereo unspecified), for which the IC50 in series [1] (Trypanosoma brucei, STIB 795) is 3.79 µM; in series [2], more than 20.8 µM.

With `O=C(CC1(O)C(=O)Nc2ccc(Br)cc21)c1ccccc1F` (stereo unspecified), the IC50 in series [1] (Trypanosoma brucei, STIB 795) is 4.54 µM; in series [2], more than 41.7 µM.

For the molecule `CC(C)(C)c1cc(/C=N/Nc2nc3ccccc3[nH]2)cc(C(C)(C)C)c1O`, the 50% inhibitory concentration (IC50) in series [1] (Trypanosoma brucei, STIB 795) was 0.485 µM; in series [2] it was more than 20.8 µM.

With `CN(C)CCCN(C)Cc1ccccc1Sc1ccc2ccccc2c1`, the IC50 is 2.57 µM in series [1] (Trypanosoma brucei, STIB 795) and more than 41.7 µM in series [2].

For `Cc1cc2c(c(=O)o1)C(c1ccc(Br)s1)C(C#N)=C(N)O2` (stereo unspecified), the IC50 is 5.05 µM and > 10.4 µM in series [1]; more than 41.7 µM in series [2].

Regarding `COc1c(S(=O)(=O)c2ccc(C)c(F)c2)cnc2ccc(Cl)cc12`, the IC50 in series [1] (Trypanosoma brucei, STIB 795) is 3.1 µM; in series [2], more than 20.8 µM.

Regarding `Cc1cc(F)ccc1NC(=O)Nc1ccc(-c2noc(C3CCC3)n2)cc1`, the IC50 was 4.73 µM in series [1] (Trypanosoma brucei, STIB 795) and more than 41.7 µM in series [2].

In the case of `Cc1cc(-c2ccco2)c(C#N)c(SCC(=O)c2ccc(O)c(O)c2)n1`, the IC50 in series [1] was 0.756 µM; in series [1] (Trypanosoma brucei, STIB 795), 0.791 µM; in series [2], more than 41.7 µM.

Turning to `COc1cc2nc(-c3cccnc3)nc(N3CCC[C@H]3CO)c2cc1OC`, the IC50 was 5.31 µM in series [1] (Trypanosoma brucei, STIB 795) and more than 20.8 µM in series [2].

Consider `CCN(CC)c1ccc(/C=N\NC(=O)Cn2nnc3ccccc32)c(O)c1`, for which the 50% inhibitory concentration (IC50) in series [1] (Trypanosoma brucei, STIB 795) is 0.551 µM; in series [2], more than 41.7 µM.

For the molecule `O=C(CN1C(=O)S/C(=C/c2ccccc2Cl)C1=O)N1CCOCC1`, the IC50 in series [1] (Trypanosoma brucei, STIB 795) is 5.03 µM; in series [2], more than 41.7 µM.

`CN(CCO)CC(O)Cn1c2ccc(Cl)cc2c2cc(Cl)ccc21` (stereo unspecified): the IC50 in series [1] (Trypanosoma brucei, STIB 795) was 4.95 µM; in series [2], more than 20.8 µM.

Regarding `Cc1ccc(C(=O)ON=C(/C=C/c2ccccc2)/C=C/c2ccccc2)cc1`, the IC50 in series [1] (Trypanosoma brucei, STIB 795) was 1.65 µM; in series [2], more than 41.7 µM.

For the molecule `CC(CON1C(N)=NC(N)=NC1(C)C)Cc1cccc(Br)c1` (stereo unspecified), the IC50 in series [1] (Trypanosoma brucei, STIB 795) is not above 3.67 µM; in series [2] it was more than 4.17 µM.

In the case of `CN(CCCNC(=O)c1n[nH]c2c1COc1ccccc1-2)C1CCCCC1`, the IC50 in series [1] (Trypanosoma brucei, STIB 795) is 5.06 µM; in series [2], more than 20.8 µM.

For `COc1ccc(C2=Nn3c([n+](C)c4cc(C)c(C)cc43)SC2)cc1OC`, the IC50 in series [1] (Trypanosoma brucei, STIB 795) is 5.33 µM; in series [2], more than 20.8 µM.

For the molecule `Brc1ccc(-c2nc(N3CCNCC3)c3ccccc3n2)cc1`, the IC50 in series [1] (Trypanosoma brucei, STIB 795) was 2.83 µM; in series [2], more than 10.4 µM.

On to `Cc1cc(C)c(OCCCCCCN2CCNCC2)c(Br)c1`, for which the IC50 in series [1] (Trypanosoma brucei, STIB 795) was 1.02 µM; in series [2] it was more than 20.8 µM.

With `CCOC(=O)c1c(CN2CCOCC2)oc2c1C(=O)C(=O)c1ccccc1-2`, the IC50 is 0.846 µM in series [1] (Trypanosoma brucei, STIB 795) and more than 20.8 µM in series [2].

As to `CCCCN1/C(=C/c2cc[n+](CC)c3ccccc23)C=Cc2cc(C)ccc21`, the IC50 in series [1] (Trypanosoma brucei, STIB 795) is 0.831 µM; in series [2], more than 10.4 µM.

On to `CCCC[n+]1c(/C=C2/C=CN(CC)c3ccc(C)cc32)ccc2ccccc21`, for which the 50% inhibitory concentration (IC50) in series [1] (Trypanosoma brucei, STIB 795) was 0.362 µM; in series [2], more than 4.17 µM.
